From patent publication US8217061B2, “Polymorphs of sorafenib tosylate and sorafenib hemi-tosylate, and processes for preparation thereof” (Sicor Inc., priority 2008, dated 2012)

Tests used:
[1] = as reported in WO 2006/034797, page 2, lines 5-7; cited from earlier work
[2] = stability of crystalline form in water suspension (no hydrolysis of the PTSA moiety); format: physicochemical; conditions: about 20° C., stable = no hydrolysis of the PTSA moiety in water for at least about 48 hours
Protocol: Sorafenib hemi-tosylate Form A is a stable crystalline form in water suspensions at a temperature of about 20° C., making it ideal for use in the preparation of a dosage form, particularly when the process of wet granulation is used.

| Compound | stability of polymorphic form [1] | stability of crystalline form in water suspensions [2] |
| --- | --- | --- |
| CNC(=O)c1cc(Oc2ccc(NC(=O)Nc3ccc(Cl)c(C(F)(F)F)c3)cc2)ccn1.Cc1ccc(S(=O)(=O)O)cc1 [form II, 4-(4-{3-[4-chloro-3-(trifluoromethyl)phenyl]ureido}phenoxy)-N2-methylpyridine-2-carboxamide 4-methylbenzenesulfonate] | meta stable |  |
| Sorafenib hemi-tosylate [Sorafenib hemi-tosylate Form A] |  | stable |
